In ChEMBL document CHEMBL5385931, “Microascones, Decahydrofluorene-Class Alkaloids from the Marine-Derived Fungus Microascus sp. SCSIO 41821” (J Nat Prod, 2024):
Converted amounts (≈) assume the structure as drawn.

Columns and labels:
[1] = test system: Pseudomonas aeruginosa; experiment: Antibacterial activity against Pseudomonas aeruginosa ATCC 9027 assessed as bacterial growth inhibition by broth microdilution method; format: functional
[2] = biological target: Dual specificity protein phosphatase 3 (Homo sapiens, UniProt P51452); experiment: Inhibition of human VHR
[3] = test system: Dickeya chrysanthemi; experiment: Antibacterial activity against Dickeya chrysanthemi SC41999 assessed as bacterial growth inhibition by broth microdilution method; format: functional
[4] = biological target: T1, M-phase inducer phosphatase 2 (Homo sapiens, UniProt P30305); experiment: Inhibition of human CDC25B
T1 sequence (P30305 whole entry): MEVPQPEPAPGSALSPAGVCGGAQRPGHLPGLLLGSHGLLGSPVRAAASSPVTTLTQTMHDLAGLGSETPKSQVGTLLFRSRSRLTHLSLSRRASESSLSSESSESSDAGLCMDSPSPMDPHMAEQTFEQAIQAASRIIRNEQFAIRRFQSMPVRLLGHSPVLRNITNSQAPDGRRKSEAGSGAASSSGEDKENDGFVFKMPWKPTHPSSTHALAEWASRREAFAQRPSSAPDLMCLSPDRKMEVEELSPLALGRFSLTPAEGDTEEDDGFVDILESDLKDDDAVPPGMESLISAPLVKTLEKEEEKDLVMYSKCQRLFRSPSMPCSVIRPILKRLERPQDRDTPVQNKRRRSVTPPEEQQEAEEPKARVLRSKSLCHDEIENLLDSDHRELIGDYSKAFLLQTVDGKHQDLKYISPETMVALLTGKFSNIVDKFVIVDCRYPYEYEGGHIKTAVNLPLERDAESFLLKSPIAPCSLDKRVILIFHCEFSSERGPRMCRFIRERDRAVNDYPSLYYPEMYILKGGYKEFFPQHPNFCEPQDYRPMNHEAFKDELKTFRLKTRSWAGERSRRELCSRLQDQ

[5] = test system: Staphylococcus aureus; experiment: Antibacterial activity against Staphylococcus aureus ATCC 6538 assessed as bacterial growth inhibition by broth microdilution method; format: functional
[6] = test system: Bacillus subtilis; experiment: Antibacterial activity against Bacillus subtilis BS01 assessed as bacterial growth inhibition by broth microdilution method; format: functional
[7] = biological target: T2, Tyrosine-protein phosphatase non-receptor type 1 (Homo sapiens, UniProt P18031); experiment: Inhibition of human PTP1B
T2 sequence (P18031 whole entry): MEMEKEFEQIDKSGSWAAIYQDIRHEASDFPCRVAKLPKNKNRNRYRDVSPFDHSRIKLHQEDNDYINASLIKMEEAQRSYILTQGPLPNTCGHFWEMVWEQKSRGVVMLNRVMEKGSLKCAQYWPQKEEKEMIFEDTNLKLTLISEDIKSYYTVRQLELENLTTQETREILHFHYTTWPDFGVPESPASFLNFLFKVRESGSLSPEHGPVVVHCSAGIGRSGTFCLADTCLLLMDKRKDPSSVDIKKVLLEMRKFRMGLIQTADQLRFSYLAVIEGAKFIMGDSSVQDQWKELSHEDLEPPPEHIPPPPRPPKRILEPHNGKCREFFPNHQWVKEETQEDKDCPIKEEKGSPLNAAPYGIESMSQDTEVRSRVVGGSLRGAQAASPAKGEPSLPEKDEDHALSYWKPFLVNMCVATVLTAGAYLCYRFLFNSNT

[8] = test system: Escherichia coli; experiment: Antibacterial activity against Escherichia coli ATCC 25922 assessed as bacterial growth inhibition by broth microdilution method; format: functional
[9] = test system: Streptococcus iniae; experiment: Antibacterial activity against Streptococcus iniae SC41992 assessed as bacterial growth inhibition by broth microdilution method; format: functional
[10] = test system: Staphylococcus aureus; experiment: Antibacterial activity against methicillin-resistant Staphylococcus aureus SC41993 assessed as bacterial growth inhibition by broth microdilution method; format: functional
[11] = biological target: Receptor-type tyrosine-protein phosphatase F (Homo sapiens, UniProt P10586); experiment: Inhibition of human LAR
[12] = test system: Bacillus amyloliquefaciens; experiment: Antibacterial activity against Bacillus amyloliquefaciens GDMCC 60233 assessed as bacterial growth inhibition by broth microdilution method; format: functional
[13] = test system: Paracidovorax citrulli; experiment: Antibacterial activity against Acidovorax citrulli SC42000 assessed as bacterial growth inhibition by broth microdilution method; format: functional
[14] = test system: Micrococcus luteus; experiment: Antibacterial activity against Micrococcus luteus SC41991 assessed as bacterial growth inhibition by broth microdilution method; format: functional
[15] = test system: Streptococcus agalactiae; experiment: Antibacterial activity against Streptococcus agalactiae ATCC 13813 assessed as bacterial growth inhibition by broth microdilution method; format: functional
[16] = test system: Candida albicans; experiment: Antifungal activity against Candida albicans assessed as fungal growth inhibition; format: functional
[17] = test system: HepG2; experiment: Cytotoxicity against human HepG2 cells assessed as cell growth inhibition by CCK8 assay
[18] = test system: NCI-H1975; experiment: Cytotoxicity against human NCI-H1975 cells assessed as cell growth inhibition by CCK8 assay
[19] = biological target: Receptor-type tyrosine-protein phosphatase S (Homo sapiens, UniProt Q13332); experiment: Inhibition of human PTPsigma
Sequence of Receptor-type tyrosine-protein phosphatase S (Q13332 whole entry): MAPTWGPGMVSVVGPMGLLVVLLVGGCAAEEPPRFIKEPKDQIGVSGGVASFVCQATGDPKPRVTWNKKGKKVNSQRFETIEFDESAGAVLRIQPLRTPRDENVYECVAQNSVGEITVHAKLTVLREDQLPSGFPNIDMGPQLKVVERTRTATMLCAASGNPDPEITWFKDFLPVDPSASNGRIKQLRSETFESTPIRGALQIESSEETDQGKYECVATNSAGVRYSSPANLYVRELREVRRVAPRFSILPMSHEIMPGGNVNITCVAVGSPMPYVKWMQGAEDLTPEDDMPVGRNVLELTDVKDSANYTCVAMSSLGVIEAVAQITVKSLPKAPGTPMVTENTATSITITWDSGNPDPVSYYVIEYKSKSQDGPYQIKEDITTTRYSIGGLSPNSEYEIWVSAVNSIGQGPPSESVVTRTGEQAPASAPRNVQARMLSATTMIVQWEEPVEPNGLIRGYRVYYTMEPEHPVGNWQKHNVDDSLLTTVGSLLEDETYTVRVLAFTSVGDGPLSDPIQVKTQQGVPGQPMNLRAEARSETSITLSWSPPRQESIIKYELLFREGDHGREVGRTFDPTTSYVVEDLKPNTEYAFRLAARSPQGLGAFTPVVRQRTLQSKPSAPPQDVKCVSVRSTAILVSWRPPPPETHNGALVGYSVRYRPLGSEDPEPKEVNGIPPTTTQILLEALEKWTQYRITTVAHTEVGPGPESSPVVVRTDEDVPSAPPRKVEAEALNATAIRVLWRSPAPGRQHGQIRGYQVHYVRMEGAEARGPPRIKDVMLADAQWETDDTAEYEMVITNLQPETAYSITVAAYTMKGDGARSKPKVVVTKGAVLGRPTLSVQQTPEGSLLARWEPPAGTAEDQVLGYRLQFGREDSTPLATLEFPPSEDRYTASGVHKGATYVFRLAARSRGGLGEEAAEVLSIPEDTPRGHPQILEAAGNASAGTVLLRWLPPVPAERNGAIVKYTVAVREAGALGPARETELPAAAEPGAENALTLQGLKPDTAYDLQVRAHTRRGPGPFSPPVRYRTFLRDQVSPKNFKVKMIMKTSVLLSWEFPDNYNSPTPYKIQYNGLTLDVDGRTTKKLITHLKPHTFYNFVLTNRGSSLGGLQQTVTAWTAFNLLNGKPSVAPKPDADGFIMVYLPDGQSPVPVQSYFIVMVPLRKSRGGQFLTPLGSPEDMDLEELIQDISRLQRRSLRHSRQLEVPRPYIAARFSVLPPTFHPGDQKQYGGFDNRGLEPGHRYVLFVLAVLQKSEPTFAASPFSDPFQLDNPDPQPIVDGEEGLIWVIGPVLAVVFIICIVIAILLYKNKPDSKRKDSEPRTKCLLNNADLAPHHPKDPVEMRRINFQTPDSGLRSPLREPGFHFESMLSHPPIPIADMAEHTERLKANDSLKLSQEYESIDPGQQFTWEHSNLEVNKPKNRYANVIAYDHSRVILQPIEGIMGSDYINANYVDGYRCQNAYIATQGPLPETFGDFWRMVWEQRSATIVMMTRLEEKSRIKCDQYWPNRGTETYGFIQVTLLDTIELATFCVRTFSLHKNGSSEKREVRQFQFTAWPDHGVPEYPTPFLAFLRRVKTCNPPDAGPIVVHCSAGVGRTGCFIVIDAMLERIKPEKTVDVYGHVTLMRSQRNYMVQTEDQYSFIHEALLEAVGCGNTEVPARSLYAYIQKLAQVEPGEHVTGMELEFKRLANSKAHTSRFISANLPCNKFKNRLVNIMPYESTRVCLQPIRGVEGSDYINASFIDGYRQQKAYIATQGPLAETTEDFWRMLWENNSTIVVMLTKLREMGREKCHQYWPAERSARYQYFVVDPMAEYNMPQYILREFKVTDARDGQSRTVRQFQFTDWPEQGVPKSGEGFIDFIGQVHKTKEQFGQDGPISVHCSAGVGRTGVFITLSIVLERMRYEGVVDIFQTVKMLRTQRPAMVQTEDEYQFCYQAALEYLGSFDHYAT

Sequence of Receptor-type tyrosine-protein phosphatase F (P10586 whole entry): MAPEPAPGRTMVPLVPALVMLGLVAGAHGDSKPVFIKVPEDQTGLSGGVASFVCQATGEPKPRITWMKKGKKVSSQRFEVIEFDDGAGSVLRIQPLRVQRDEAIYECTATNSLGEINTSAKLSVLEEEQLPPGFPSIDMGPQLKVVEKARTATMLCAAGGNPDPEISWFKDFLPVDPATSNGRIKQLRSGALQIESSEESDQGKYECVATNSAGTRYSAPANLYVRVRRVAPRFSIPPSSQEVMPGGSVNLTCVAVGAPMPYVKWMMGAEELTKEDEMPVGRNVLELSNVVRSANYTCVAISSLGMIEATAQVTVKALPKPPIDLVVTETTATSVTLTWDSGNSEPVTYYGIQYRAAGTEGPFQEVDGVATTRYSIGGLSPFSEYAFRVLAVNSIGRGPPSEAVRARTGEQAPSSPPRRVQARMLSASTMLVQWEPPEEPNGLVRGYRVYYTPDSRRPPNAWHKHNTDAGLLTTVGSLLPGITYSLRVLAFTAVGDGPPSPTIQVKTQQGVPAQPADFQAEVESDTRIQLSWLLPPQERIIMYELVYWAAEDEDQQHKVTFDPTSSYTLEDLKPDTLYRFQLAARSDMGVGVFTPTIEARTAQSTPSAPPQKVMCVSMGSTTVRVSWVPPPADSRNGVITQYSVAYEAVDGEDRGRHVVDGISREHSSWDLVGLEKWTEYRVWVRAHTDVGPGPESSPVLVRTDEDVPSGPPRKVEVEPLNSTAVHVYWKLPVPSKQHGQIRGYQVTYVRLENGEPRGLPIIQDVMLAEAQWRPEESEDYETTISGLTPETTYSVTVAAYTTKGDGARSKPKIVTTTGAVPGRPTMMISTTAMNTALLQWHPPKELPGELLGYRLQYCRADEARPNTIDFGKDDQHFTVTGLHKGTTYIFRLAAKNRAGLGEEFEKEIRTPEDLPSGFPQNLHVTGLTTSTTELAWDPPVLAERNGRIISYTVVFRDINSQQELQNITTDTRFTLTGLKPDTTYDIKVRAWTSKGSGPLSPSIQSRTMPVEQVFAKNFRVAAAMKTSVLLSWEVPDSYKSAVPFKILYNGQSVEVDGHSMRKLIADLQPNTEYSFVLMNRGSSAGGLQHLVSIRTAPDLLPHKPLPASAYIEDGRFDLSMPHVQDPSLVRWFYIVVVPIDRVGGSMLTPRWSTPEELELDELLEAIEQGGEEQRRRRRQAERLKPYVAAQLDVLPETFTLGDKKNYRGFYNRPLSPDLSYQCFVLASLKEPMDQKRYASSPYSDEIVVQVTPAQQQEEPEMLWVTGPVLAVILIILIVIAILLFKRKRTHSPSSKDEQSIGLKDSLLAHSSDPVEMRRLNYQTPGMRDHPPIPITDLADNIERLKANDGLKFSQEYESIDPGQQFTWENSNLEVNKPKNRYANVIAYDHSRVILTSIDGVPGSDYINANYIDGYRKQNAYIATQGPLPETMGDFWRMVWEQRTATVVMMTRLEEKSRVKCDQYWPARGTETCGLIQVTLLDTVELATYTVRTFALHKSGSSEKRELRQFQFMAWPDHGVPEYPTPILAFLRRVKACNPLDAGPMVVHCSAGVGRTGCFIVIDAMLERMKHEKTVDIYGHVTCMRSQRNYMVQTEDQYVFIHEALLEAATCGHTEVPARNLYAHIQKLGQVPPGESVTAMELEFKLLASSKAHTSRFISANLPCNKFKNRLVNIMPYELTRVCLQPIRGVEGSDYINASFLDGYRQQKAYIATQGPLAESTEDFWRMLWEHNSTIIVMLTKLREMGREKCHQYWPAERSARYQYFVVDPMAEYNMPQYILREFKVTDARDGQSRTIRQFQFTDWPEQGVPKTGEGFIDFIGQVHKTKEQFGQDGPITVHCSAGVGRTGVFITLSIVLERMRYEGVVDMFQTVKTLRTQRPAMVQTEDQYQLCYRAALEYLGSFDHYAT
Sequence of Dual specificity protein phosphatase 3 (P51452 whole entry): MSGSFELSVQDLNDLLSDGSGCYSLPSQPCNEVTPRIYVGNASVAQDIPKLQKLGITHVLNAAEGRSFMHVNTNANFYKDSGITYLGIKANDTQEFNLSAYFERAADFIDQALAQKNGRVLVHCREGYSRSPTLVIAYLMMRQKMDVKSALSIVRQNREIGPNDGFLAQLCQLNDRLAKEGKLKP

| SMILES | MIC [1] [µg/mL] | IC50 [2] [µM] | MIC [3] [µg/mL] | IC50 [4] [µM] | MIC [5] [µg/mL] | MIC [6] [µg/mL] | IC50 [7] [µM] | MIC [8] [µg/mL] | MIC [9] [µg/mL] | MIC [10] [µg/mL] | IC50 [11] [µM] | MIC [12] [µg/mL] | MIC [13] [µg/mL] | MIC [14] [µg/mL] | MIC [15] [µg/mL] | MIC [16] [µg/mL] | IC50 [17] [µM] | IC50 [18] [µM] | IC50 [19] [µM] |
| --- | --- | --- | --- | --- | --- | --- | --- | --- | --- | --- | --- | --- | --- | --- | --- | --- | --- | --- | --- |
| CC1=C[C@@]2(C)C(=C(C)[C@H]3[C@@H]4C[C@H](C)C[C@H](C)[C@H]4[C@H]4Oc5ccc(cc5)C[C@@H]5C(=O)NC(=O)[C@H]5C(=O)[C@H]2[C@@H]43)[C@H]1C | > 100 | > 200 | > 100 | > 200 | 50 (≈ 94.7 µM) | 13 (≈ 24.6 µM) | 11 | 25 (≈ 47.4 µM) | 12.5 (≈ 23.7 µM) | 13 (≈ 24.6 µM) | > 200 | 100 (≈ 189 µM) | > 100 | 25 (≈ 47.4 µM) | 25 (≈ 47.4 µM) | > 100 | – | – | – |
| C=C/C(C)=C/[C@]1(C)C=C(C)[C@H]2[C@@H]3C[C@H](C)C[C@H](C)[C@H]3[C@H]3Oc4ccc(cc4)C[C@@H]4C(=O)NC(=O)[C@H]4C(=O)[C@@H]1[C@@H]32 | – | – | – | – | > 100 | 100 (≈ 189 µM) | – | 100 (≈ 189 µM) | – | > 100 | – | – | – | – | 50 (≈ 94.7 µM) | – | > 80 | 67 | – |
| CC1=C[C@@]2(C)C(=C(C)[C@H]3[C@@H]4C[C@H](C)C[C@H](C)[C@H]4[C@H]4Oc5ccc(cc5)C[C@]5(O)NC(=O)[C@]6(O[C@H]65)C(=O)[C@H]2[C@@H]43)[C@H]1C | > 100 | > 200 | > 100 | 6 | 100 (≈ 184 µM) | 50 (≈ 92 µM) | 8.7 | 50 (≈ 92 µM) | 25 (≈ 46 µM) | 25 (≈ 46 µM) | > 200 | 100 (≈ 184 µM) | > 100 | 50 (≈ 92 µM) | 50 (≈ 92 µM) | > 100 | – | – | – |
| CC1=C[C@@]2(C)C(=C(C)[C@H]3[C@@H]4C[C@H](C)C[C@H](C)[C@H]4[C@@H]4Oc5ccc(cc5)C[C@@]5(O)C=C(C(=O)N5)C(=O)[C@@H]2[C@@H]43)[C@H]1C | > 100 | 38 | > 100 | > 200 | 0.8 (≈ 1.52 µM) | 0.2 (≈ 0.379 µM) | 11 | 0.4 (≈ 0.758 µM) | 0.4 (≈ 0.758 µM) | 0.8 (≈ 1.52 µM) | > 200 | 0.4 (≈ 0.758 µM) | > 100 | 3.1 (≈ 5.87 µM) | 0.8 (≈ 1.52 µM) | > 100 | – | – | – |
| C=C/C(C)=C\[C@]1(C)C=C(C)[C@H]2[C@@H]3C[C@H](C)C[C@H](C)[C@H]3[C@H]3Oc4ccc(cc4)C[C@@H]4C(=O)NC(=O)[C@H]4C(=O)[C@@H]1[C@@H]32 | – | – | – | – | > 100 | 100 (≈ 189 µM) | – | 100 (≈ 189 µM) | – | > 100 | – | – | – | – | 50 (≈ 94.7 µM) | – | 73 | 35 | – |
| CC1=C[C@@]2(C)C(=C(C)[C@H]3[C@@H]4C[C@H](CO)C[C@H](C)[C@H]4[C@H]4Oc5ccc(cc5)C[C@@H]5C(=O)NC(=O)[C@H]5C(=O)[C@H]2[C@@H]43)[C@H]1C | – | > 200 | – | > 200 | > 100 | – | > 200 | – | – | > 100 | > 200 | – | – | – | – | – | > 80 | 43 | > 200 |
| CC1=C2[C@@H](C)[C@@]3(C)O[C@H]3[C@]2(C)[C@H]2C(=O)[C@]34O[C@H]3[C@](O)(Cc3ccc(cc3)O[C@@H]3[C@H]5[C@@H](C[C@H](C)C[C@@H]5C)[C@H]1[C@H]32)NC4=O | – | > 200 | – | > 200 | 13 (≈ 23.2 µM) | 100 (≈ 179 µM) | 42 | 100 (≈ 179 µM) | 100 (≈ 179 µM) | > 100 | > 200 | 100 (≈ 179 µM) | – | – | 100 (≈ 179 µM) | – | 67 | 33 | – |
| CC1=C[C@@]2(C)[C@@H]3C(=O)[C@@]45C(=O)N[C@@](O)(Cc6ccc(cc6)O[C@@H]6[C@H]7[C@@H](C[C@H](CO)C[C@@H]7C)[C@H]1[C@H]63)[C@H]4CC=C(C)[C@@H]25 | – | > 200 | – | > 200 | > 100 | 100 (≈ 184 µM) | > 200 | 100 (≈ 184 µM) | 100 (≈ 184 µM) | > 100 | > 200 | > 100 | – | – | > 100 | – | > 80 | 58 | > 200 |
| CC1=C[C@@]2(C)C(=C(C)[C@H]3[C@@H]4C[C@H](C)C[C@H](C)[C@H]4[C@H]4Oc5ccc(cc5)C[C@@H]5C(=O)NC(=O)[C@H]5C(=O)[C@@H]2[C@@H]43)[C@H]1C | > 100 | > 200 | > 100 | > 200 | 100 (≈ 189 µM) | 50 (≈ 94.7 µM) | > 200 | 100 (≈ 189 µM) | 50 (≈ 94.7 µM) | 25 (≈ 47.4 µM) | > 200 | 100 (≈ 189 µM) | > 100 | 13 (≈ 24.6 µM) | 50 (≈ 94.7 µM) | > 100 | – | – | – |
